The text below walks through data of US8362000B2, “Azetidinyl diamides as monoacylglycerol lipase inhibitors” (Janssen Pharmaceutica NV, priority 2009, dated 2013).

The target of assay [1] is T1, MGL (Rattus norvegicus, UniProt Q8R431).
T1 construct: one g rat brain was homogenized using a Polytron homogenizer; from tissue; host or cells: rat brain homogenate
T1 sequence (Q8R431 1-303): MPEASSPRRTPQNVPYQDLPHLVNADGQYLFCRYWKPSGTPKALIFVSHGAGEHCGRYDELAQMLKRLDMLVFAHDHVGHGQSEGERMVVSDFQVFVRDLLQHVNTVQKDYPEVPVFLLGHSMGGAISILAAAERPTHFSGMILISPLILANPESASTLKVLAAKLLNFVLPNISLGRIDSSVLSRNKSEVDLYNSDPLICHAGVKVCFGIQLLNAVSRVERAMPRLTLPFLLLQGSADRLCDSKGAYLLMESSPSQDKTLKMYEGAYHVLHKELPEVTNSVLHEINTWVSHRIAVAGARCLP
The assay can be described thus: 2-AG accumulation assay in rat brain homogenate. The class given is biochemical. Conditions: rat brain homogenate, 2-AG accumulation as percent of vehicle; for 2-AG accumulation, % of vehicle control at 1 µM: compound 1 μM, read-out: Rat Brain 2AG % VehCntrl (%) @ 1 μM.

Assay [2] addresses T2, purified wild type MGL (wt-MGLL 6H-11-313) (Homo sapiens, UniProt Q99685).
T2 sequence (Q99685 1-303): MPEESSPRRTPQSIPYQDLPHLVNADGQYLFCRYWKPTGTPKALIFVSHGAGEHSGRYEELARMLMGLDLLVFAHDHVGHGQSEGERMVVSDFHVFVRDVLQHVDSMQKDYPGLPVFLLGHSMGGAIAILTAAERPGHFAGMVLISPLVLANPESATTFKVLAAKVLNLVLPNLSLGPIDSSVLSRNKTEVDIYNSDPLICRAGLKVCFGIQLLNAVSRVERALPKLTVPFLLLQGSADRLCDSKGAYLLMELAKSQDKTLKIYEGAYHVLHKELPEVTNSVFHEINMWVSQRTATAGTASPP

Assay [3] deals with T3, mutant MGL (Homo sapiens, UniProt Q99685, L169S/L176S).
T3 sequence (Q99685 1-303 L169S/L176S): T2 sequence (Q99685 1-303) with L169S, L176S
The assay can be described thus: MGL ThermoFluor assay - mutant. The class given is binding. Background: DSF heats the sample and reads unfolding from a dye or from intrinsic fluorescence.
Experimental: The ThermoFluor (TF) assay is a 384-well plate-based binding assay that measures thermal stability of proteins^1,2. […] TF dye used in all experiments was 1,8-ANS (Invitrogen: A-47). Final TF assay conditions used for MGL studies were 0.07 mg/ml of mutant MGL, 100 μM ANS, 200 mM NaCl, 0.001% Tween-20 in 50 mM PIPES (pH=7.0).
Screening compound plates contained 100% DMSO compound solutions at a single concentration. […] Columns 12 and 24 were used as DMSO reference and contained no compound. […] Following compound dispension, protein and dye solutions were added to achieve the final assay volume of 3 μL.
Bar-coded assay plates were robotically loaded onto a thermostatically controlled PCR-type thermal block and then heated from 40 to 90° C. degrees at a ramp-rate of 1° C./min for all experiments. Fluorescence was measured by continuous illumination with UV light (Hamamatsu LC6), supplied via fiber optics and filtered through a band-pass filter (380-400 nm; >60D cutoff). Fluorescence emission of the entire 384-well plate was detected by measuring light intensity using a CCD camera (Sensys, Roper Scientific) filtered to detect 500±25 nm, resulting in simultaneous and independent readings of all 384 wells. A single image with 20-sec exposure time was collected at each temperature, and the sum of the pixel intensity in a given area of the assay plate was recorded vs temperature and fit to standard equations to yield the Tm^1. • 1.
For some experiments, quantitative NMR spectroscopy (qNMR) was used to measure concentration of the initial 100% DMSO compound solutions and, using the same fitting method, qKd values were determined

Where [4] appears, read: ThermoFluor thermal stability binding assay, read-out: MGL mutant ThermoFluor Kd.
Setting [5] is: ThermoFluor concentration-response, read-out: MGL mutant ThermoFluor Kd.
[6] abbreviates: ThermoFluor, compound concentration measured by qNMR, read-out: MGL mutant ThermoFluor qKd (μM) (using qNMR conc.).

Substitutions are numbered along the chain they refer to. Like-named read-outs stand apart in the source and are kept apart here. Where only a bound is given, the exact number is not on record here.

Take `O=C(c1ccc2c(c1)CCCN2)N1CC(N2CCN(C(=O)c3nccs3)CC2)C1` [Cpd 357, 6-(3-[4-(1,3-Thiazol-2-ylcarbonyl)piperazin-1-yl]-azetidin-1-yl)carbonyl-1,2,3,4-tetrahydroquinoline]: the 2-AG accumulation, % of vehicle control at 1 µM in assay [1] was determined as 152%. In addition, the IC50 (usually the concentration that inhibits the measured activity by half) in assay [2] was 3750 nM. Also, the Kd in assay [3] (setting [4]) turned out to be 0.238 µM.
On to `O=C(c1ccc(-c2nc(-c3ccc(F)cc3)cs2)cc1)N1CC(N2CCN(C(=O)c3nccs3)CC2)C1` [Cpd 1082], for which the 2-AG accumulation, % of vehicle control at 1 µM in assay [1] came out at 742%. The molecule also registered an IC50 in assay [2] of 9 nM. For the same molecule, the Kd in assay [3] (setting [5]) was 0.003 µM.
In the case of `COc1cc(-n2ccc3cc(C(=O)N4CC(N5CCN(C(=O)c6nccs6)CC5)C4)ccc32)ccn1` [Cpd 1107, 1-(2-Methoxypyridin-4-yl)-5-({3-[4-(1,3-thiazol-2-ylcarbonyl)piperazin-1-yl]azetidin-1-yl}carbonyl)-1H-indole], in assay [1], the 2-AG accumulation, % of vehicle control at 1 µM was determined as 838%. In assay [2], this molecule returned an IC50 of 14 nM. Moreover, the Kd in assay [3] (ThermoFluor, compound concentration measured by qNMR, read-out: MGL mutant ThermoFluor qKd (using qNMR conc.)) turned out to be 0.003 µM.
Regarding `O=C(c1ccc(OCc2cncc(Cl)c2)cc1)N1CC(N2CCN(C(=O)c3nccs3)CC2)C1` [Cpd 978], in assay [1], the 2-AG accumulation, % of vehicle control at 1 µM amounted to 570%. In assay [2], the IC50 came to 7 nM. Also, the Kd in assay [3] (setting [4]) turned out to be 0.066 µM.
Regarding `Cc1ccc2sc(C(=O)N3CC(N4CCN(C(=O)c5nccs5)CC4)C3)c(C(F)(F)F)c2c1` [Cpd 691, 1-(1-{[5-Methyl-3-(trifluoromethyl)-1-benzothiophen-2-yl]carbonyl}azetidin-3-yl)-4-(1,3-thiazol-2-ylcarbonyl)piperazine], the 2-AG accumulation, % of vehicle control at 1 µM in assay [1] was found to be 840%. Half-maximal inhibition in assay [2] (IC50) required 46 nM. Moreover, the Kd in assay [3] (setting [5]) is 0.004 µM.
Taken in the same sequence, the figures for `O=C(c1ccc(-c2ccc(Br)cc2)cc1)N1CC(N2CCN(C(=O)c3cscn3)CC2)C1` [Cpd 172, 1-{1-[(4′-Bromobiphenyl-4-yl)carbonyl]azetidin-3-yl}-4-(1,3-thiazol-4-ylcarbonyl)piperazine] were 217%, 7.3 nM and 0.1 µM.
In the case of `O=C(c1ccc(-c2ccc(C(F)(F)F)s2)cc1)N1CCN(C2CN(C(=O)c3ccc[nH]3)C2)CC1` [Cpd 1162], the 2-AG accumulation, % of vehicle control at 1 µM in assay [1] stood at 237%. For the same molecule, the IC50 in assay [2] turned out to be 47 nM. The Kd in assay [3] (compound concentration measured by qNMR, read-out: MGL mutant ThermoFluor qKd (using qNMR conc.)) is 0.014 µM.
For `O=C(c1ccccc1)N1CCN(C2CN(C(=O)c3ccc4c(ccn4-c4ccc(OC(F)(F)F)cc4)c3)C2)CC1` [Cpd 573], the 2-AG accumulation, % of vehicle control at 1 µM in assay [1] stood at 277%. Further, the IC50 in assay [2] worked out at 46 nM. Further, the Kd in assay [3] (setting [6]) is 0.1 µM.
Consider `O=C(c1nccs1)N1CCN(C2CN(C(=O)c3cccc4nc(-c5ccccc5)oc34)C2)CC1` [Cpd 1154, 2-Phenyl-7-({3-[4-(1,3-thiazol-2-ylcarbonyl)piperazin-1-yl]azetidin-1-yl}carbonyl)-1,3-benzoxazole], for which the 2-AG accumulation, % of vehicle control at 1 µM in assay [1] was 558%. In assay [2], this molecule registered an IC50 of 40 nM. Further, the Kd in assay [3] (setting [4]) came out at 0.006 µM.
For the molecule `O=C(c1nccs1)N1CCN(C2CN(C(=O)c3nn(-c4ccc(Cl)cc4Cl)c4c3CSC/C4=C\c3ccc(F)cc3)C2)CC1` [Cpd 1021], in assay [1], the 2-AG accumulation, % of vehicle control at 1 µM is 232%. In addition, it took 15 nM to reach half-maximal inhibition in assay [2] (IC50). Further, the Kd in assay [3] (setting [5]) worked out at 0.239 µM.
With `O=C(c1ccc2nc(-c3ccc(F)c(F)c3)oc2c1)N1CC(N2CCN(C(=O)c3cscn3)CC2)C1` [Cpd 1178], in assay [1], the 2-AG accumulation, % of vehicle control at 1 µM turned out to be 292%. Half-maximal inhibition in assay [2] (IC50) was put at 71 nM. Further, the Kd in assay [3] (setting [6]) is 0.238 µM.
For `O=C(c1cscn1)N1CCN(C2CN(C(=O)c3nn(-c4ccc(Cl)cc4Cl)c4c3CCC/C4=C\c3ccc(Cl)cc3)C2)CC1` [Cpd 1023], the 2-AG accumulation, % of vehicle control at 1 µM in assay [1] was determined as 262%. For the same molecule, in assay [2], the midpoint of inhibition, the IC50, lay at 41 nM. Moreover, in assay [3] (setting [5]), the Kd worked out at 0.143 µM.
As to `O=C(c1cscn1)N1CCN(C2CN(C(=O)c3cccc4nc(-c5cccc(F)c5)oc34)C2)CC1` [Cpd 1254], the 2-AG accumulation, % of vehicle control at 1 µM in assay [1] is 187%. This molecule came in with an IC50 in assay [2] of 765 nM. In assay [3] (setting [4]), the Kd was found to be 0.1 µM.
On to `O=C(c1ccc(COc2cccc(Cl)c2)cc1)N1CC(N2CCN(C(=O)c3cscn3)CC2)C1` [Cpd 959], for which, in assay [1], the 2-AG accumulation, % of vehicle control at 1 µM is 861%. Also, in assay [2], the IC50 is < 5 nM. In addition, in assay [3] (setting [5]), the Kd was found to be 0.044 µM.
Take `O=C(c1ccc(Oc2cccc(Cl)c2)c(F)c1)N1CC(N2CCN(C(=O)c3nccs3)CC2)C1` [Cpd 875]: the 2-AG accumulation, % of vehicle control at 0.1 µM in assay [1] (compound 0.1 μM, read-out: Rat Brain 2AG % VehCntrl (%) @ 0.1 μM) was determined as 232%. For the same molecule, the 2-AG accumulation, % of vehicle control at 1 µM in assay [1] was determined as 499%. Further, the IC50 in assay [2] is < 5 nM. In assay [3] (setting [5]), the Kd amounted to 0.01 µM.
As to `O=C(c1ccns1)N1CC(N2CCN(C(=O)c3cc4cc(C(F)(F)F)ccc4s3)CC2)C1` [Cpd 703, 1-[1-(Isothiazol-5-ylcarbonyl)azetidin-3-yl]-4-{[5-(trifluoromethyl)-1-benzothiophen-2-yl]carbonyl}piperazine], the 2-AG accumulation, % of vehicle control at 1 µM in assay [1] is 346%. In addition, in assay [2], 88 nM corresponded to half-maximal inhibition (IC50). Also, the Kd in assay [3] (setting [5]) amounted to 0.05 µM.
Consider `Cn1ccc2cc(C(=O)N3CC(N4CCN(C(=O)c5nccs5)CC4)C3)cc(-c3ccc(F)cc3)c21` [Cpd 1101], for which the 2-AG accumulation, % of vehicle control at 1 µM in assay [1] was determined as 501%. Further, 12 nM corresponded to half-maximal inhibition in assay [2] (IC50). Further, in assay [3] (setting [6]), the Kd was 0.044 µM.
As to `O=C(c1ccc(-c2ccc(C(F)(F)F)s2)cc1)N1CCN(C2CN(C(=O)c3nccs3)C2)CC1` [Cpd 1161], the 2-AG accumulation, % of vehicle control at 1 µM in assay [1] worked out at 459%. Also, the IC50 in assay [2] turned out to be 46 nM. For the same molecule, in assay [3] (setting [5]), the Kd was 0.025 µM.
On to `O=C(c1csc(-c2cc(Cl)cc(Cl)c2)n1)N1CC(N2CCN(C(=O)c3nccs3)CC2)C1` [Cpd 158, 1-(1-{[2-(3,5-Dichlorophenyl)-1,3-thiazol-4-yl]carbonyl}azetidin-3-yl)-4-(1,3-thiazol-2-ylcarbonyl)piperazine], for which, in assay [1], the 2-AG accumulation, % of vehicle control at 1 µM worked out at 126%. Moreover, the 2-AG accumulation, % of vehicle control at 10 µM in assay [1] (compound 10 μM, read-out: Rat Brain 2AG % VehCntrl (%) @ 10 μM) amounted to 213%. Further, inhibition in assay [2] was half-maximal at 657 nM (IC50). Besides, the Kd in assay [3] (setting [5]) came out at 0.476 µM.
As for `O=C(c1ccc2c(ccn2-c2ccc(F)cc2)n1)N1CC(N2CCN(C(=O)c3nccs3)CC2)C1` [Cpd 1153], in assay [1], the 2-AG accumulation, % of vehicle control at 1 µM was determined as 404%. The molecule also showed a concentration for half-maximal inhibition (IC50) in assay [2] of 39 nM. Moreover, the Kd in assay [3] (setting [6]) was determined as 0.004 µM.
For the molecule `Cc1ccc(-c2nnc(-c3ccc(C(=O)N4CC(N5CCN(C(=O)c6nccs6)CC5)C4)cc3)o2)cc1` [Cpd 1156], the 2-AG accumulation, % of vehicle control at 1 µM in assay [1] amounted to 681%. Moreover, inhibition in assay [2] was half-maximal at 41 nM (IC50). Further, the Kd in assay [3] (setting [5]) came out at 0.09 µM.
Taken in the same sequence, the figures for `O=C(c1nccs1)N1CCN(C2CN(C(=O)c3sc4cc(Cl)ccc4c3C(F)(F)F)C2)CC1` [Cpd 664] were 498%, 11 nM and 0.006 µM.
For the molecule `O=C(c1cc(-c2cccc(F)c2)c2[nH]ccc2c1)N1CC(N2CCN(C(=O)c3nccs3)CC2)C1` [Cpd 1183], in assay [1], the 2-AG accumulation, % of vehicle control at 1 µM is 549%. In assay [2], this molecule yielded an IC50 of 85 nM. Further, the Kd in assay [3] (setting [6]) came out at 0.067 µM.
For the molecule `O=C(c1cc(-c2ccccc2)cc(C(F)(F)F)c1)N1CC(N2CCN(C(=O)c3cscn3)CC2)C1` [Cpd 1259], the 2-AG accumulation, % of vehicle control at 1 µM in assay [1] came out at 159%. This molecule also registered an IC50 in assay [2] of 847 nM. Also, the Kd in assay [3] (setting [5]) stood at 0.667 µM.
As for `O=C(c1ccc2c(c1)CCN(Cc1ccccc1)C2)N1CC(N2CCN(C(=O)c3nccs3)CC2)C1` [Cpd 680, 2-Benzyl-6-({3-[4-(1,3-thiazol-2-ylcarbonyl)piperazin-1-yl]azetidin-1-yl}carbonyl)-1,2,3,4-tetrahydroisoquinoline], in assay [1], the 2-AG accumulation, % of vehicle control at 1 µM was determined as 356%. The IC50 in assay [2] was found to be 25 nM. Also, the Kd in assay [3] (setting [4]) is 0.053 µM.
Consider `O=C(c1ccc(-c2ccccc2)s1)N1CC(N2CCN(C(=O)c3nccs3)CC2)C1` [Cpd 1122, 1-{1-[(5-Phenylthiophen-2-yl)carbonyl]azetidin-3-yl}-4-(1,3-thiazol-2-ylcarbonyl)piperazine], for which, in assay [1], the 2-AG accumulation, % of vehicle control at 1 µM came out at 143%. The molecule also gave an IC50 in assay [2] of 18 nM. In assay [3] (setting [5]), the Kd was 0.027 µM.
